By IC50 is commonly meant the midpoint of a concentration-inhibition curve.

We go through three compounds from paper PMC7827085 (Pharmaceutics, 2021).

Data set [1] concerns the target T1, OATP2B1 (Homo sapiens, UniProt O94956).
T1 sequence (O94956 1-709): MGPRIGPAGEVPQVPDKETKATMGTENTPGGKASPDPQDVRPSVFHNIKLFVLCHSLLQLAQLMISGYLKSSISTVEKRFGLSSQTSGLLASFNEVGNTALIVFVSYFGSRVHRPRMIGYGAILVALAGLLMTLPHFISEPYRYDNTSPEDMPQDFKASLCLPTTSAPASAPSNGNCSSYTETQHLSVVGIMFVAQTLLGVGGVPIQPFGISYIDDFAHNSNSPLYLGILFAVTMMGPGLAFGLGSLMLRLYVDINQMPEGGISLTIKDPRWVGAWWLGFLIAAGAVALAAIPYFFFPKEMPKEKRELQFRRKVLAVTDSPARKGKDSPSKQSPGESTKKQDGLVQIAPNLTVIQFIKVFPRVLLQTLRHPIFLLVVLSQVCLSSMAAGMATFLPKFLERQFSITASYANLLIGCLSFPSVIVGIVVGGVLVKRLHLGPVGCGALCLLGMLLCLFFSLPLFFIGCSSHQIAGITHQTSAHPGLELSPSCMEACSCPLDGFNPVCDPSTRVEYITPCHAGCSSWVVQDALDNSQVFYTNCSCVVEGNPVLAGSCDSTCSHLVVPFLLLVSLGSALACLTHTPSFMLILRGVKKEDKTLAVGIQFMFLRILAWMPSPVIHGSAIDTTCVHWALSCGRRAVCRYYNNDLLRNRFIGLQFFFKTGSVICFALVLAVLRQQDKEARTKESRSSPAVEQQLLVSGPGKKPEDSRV
To be noted: A431-OATP2B1 cells, pyranine uptake.

The target of data set [2] is T2, ABCB1/MDR1/Pgp (Homo sapiens, UniProt P08183). To be noted: HEK-293/ABCB1 membrane vesicles.
T2 sequence (P08183 whole entry): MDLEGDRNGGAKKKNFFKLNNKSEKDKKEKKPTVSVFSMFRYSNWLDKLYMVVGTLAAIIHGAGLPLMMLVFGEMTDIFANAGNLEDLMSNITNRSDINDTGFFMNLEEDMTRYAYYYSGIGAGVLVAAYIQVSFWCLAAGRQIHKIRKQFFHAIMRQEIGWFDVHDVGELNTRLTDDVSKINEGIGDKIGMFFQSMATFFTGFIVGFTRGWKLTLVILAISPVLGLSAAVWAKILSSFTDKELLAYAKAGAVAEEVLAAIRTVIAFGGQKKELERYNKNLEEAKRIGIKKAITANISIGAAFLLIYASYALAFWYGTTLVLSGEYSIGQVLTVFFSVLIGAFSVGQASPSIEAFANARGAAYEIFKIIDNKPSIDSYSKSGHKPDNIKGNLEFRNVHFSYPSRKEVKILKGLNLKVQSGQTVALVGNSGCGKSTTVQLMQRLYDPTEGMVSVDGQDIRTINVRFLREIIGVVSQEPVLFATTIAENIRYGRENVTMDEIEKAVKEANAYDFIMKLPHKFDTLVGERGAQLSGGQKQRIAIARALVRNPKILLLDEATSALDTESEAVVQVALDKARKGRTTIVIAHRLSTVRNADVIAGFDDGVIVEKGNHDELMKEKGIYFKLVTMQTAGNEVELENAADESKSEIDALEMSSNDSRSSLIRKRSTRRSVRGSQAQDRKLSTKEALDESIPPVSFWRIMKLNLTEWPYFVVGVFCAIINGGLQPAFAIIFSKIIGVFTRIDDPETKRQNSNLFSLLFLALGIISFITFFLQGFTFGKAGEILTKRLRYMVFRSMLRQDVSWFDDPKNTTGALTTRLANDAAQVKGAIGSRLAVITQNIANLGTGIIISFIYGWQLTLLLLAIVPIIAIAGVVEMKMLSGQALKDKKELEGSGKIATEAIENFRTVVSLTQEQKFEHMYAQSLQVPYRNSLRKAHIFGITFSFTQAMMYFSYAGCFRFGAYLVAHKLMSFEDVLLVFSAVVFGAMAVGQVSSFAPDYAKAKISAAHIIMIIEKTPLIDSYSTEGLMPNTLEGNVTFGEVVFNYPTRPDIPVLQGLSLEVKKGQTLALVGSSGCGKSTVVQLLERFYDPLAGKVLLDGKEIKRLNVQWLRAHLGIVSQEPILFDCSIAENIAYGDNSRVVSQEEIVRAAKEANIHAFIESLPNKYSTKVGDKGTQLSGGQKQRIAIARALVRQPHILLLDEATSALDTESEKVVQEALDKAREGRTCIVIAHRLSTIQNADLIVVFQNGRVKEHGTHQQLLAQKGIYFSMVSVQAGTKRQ
The target of data set [3] is T3, OATP1A2 (Homo sapiens, UniProt P46721).
T3 sequence (P46721 1-670): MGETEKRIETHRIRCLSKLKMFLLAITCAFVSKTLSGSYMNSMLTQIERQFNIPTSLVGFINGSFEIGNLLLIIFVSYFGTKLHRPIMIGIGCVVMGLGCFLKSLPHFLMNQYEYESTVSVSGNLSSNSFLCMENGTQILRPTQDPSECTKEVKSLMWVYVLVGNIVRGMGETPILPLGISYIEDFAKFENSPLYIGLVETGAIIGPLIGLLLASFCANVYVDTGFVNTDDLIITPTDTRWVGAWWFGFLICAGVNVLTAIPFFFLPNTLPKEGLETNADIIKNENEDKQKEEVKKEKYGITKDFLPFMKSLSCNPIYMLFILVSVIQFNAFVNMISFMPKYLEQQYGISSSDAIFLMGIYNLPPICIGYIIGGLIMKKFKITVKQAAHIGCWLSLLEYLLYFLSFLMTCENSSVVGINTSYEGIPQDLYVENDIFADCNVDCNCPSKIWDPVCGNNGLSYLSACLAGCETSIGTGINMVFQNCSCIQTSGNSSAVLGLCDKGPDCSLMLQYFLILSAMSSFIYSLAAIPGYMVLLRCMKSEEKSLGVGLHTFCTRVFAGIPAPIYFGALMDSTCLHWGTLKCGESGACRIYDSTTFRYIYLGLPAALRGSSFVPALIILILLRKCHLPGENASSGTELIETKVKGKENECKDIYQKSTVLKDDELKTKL
Put plainly: in vitro. The note with it: A431 cells overexpressing OATP1A2, pH 7, probe sulforhodamine 101, 0.5 µM.

The target in data set [4] is T2, ABCB1/MDR1/Pgp. Put plainly: in vitro.
Data set [5] concerns the target T1, OATP2B1. Description: in vitro. The note with it: A431 cells overexpressing OATP2B1, pH 5.5, probe pyranine, 20 µM.
The target of data set [6] is T2, ABCB1/MDR1/Pgp. Description: biochemical. To be noted: Estimated Transporter Inhibition IC50, ABCB1 vesicular assay, ATP-dependent NMQ uptake, HEK-293/ABCB1 inverted membrane vesicles; '-' = no inhibition.
In data set [7] the target is T4, ABCG2/BCRP (Homo sapiens, UniProt Q9UNQ0).
T4 sequence (Q9UNQ0 1-655): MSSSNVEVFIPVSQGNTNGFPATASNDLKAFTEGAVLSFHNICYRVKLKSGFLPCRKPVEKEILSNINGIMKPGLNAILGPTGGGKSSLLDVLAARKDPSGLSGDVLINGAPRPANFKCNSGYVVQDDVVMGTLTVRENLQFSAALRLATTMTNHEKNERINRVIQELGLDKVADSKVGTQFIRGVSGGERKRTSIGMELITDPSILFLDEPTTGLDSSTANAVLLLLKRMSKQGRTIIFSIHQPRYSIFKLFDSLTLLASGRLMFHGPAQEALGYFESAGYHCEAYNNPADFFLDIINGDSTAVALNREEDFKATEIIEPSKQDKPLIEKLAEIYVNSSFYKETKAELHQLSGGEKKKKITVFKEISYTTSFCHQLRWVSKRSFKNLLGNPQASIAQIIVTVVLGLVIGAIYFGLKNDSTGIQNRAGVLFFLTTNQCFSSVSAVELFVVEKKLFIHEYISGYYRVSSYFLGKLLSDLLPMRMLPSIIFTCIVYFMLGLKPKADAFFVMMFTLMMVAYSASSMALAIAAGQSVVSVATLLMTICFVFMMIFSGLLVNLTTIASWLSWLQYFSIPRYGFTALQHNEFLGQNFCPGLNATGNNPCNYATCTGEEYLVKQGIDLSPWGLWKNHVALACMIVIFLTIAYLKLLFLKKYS
Description: ABCG2-ATPase activity in Sf9 membrane vesicles. In kind it is biochemical. To be noted: Sf9/ABCG2 membranes. Further details: expressed in transfected cells; host or cells: PLB-985.
Description: ABC transporter ATPase activity was measured in Sf9 membrane vesicles containing the respective human ABC transporters [46, 47, 48, 49, 50]. For ABCG2/BCRP, the cholesterol level in the vesicles was increased to the level of mammalian cell membranes for full activity [49]. For ABCB1/Pgp 20 μg/150 μL and for ABCG2/BCRP 10 μg/150 μL, vesicles were incubated with 3 mM Mg-ATP for 25 min at 37 °C. The test drugs were dissolved in DMSO and 1 µL was added to the samples. The ABC transporter-related ATPase activity was determined and reference activators (50 µM verapamil for ABCB1 and 5 µM quercetin for ABCG2) served as controls.
Drug-stimulated ATPase activity of the ABCG2 transporter was also measured in the present study.

Data set [8] deals with T5, wild-type ABCG2 (Homo sapiens, UniProt Q9UNQ0).
T5 construct: expressed in transfected cells; host or cells: HeLa (Sleeping Beauty transposon system)
T5 sequence (Q9UNQ0 1-655): T4 sequence (Q9UNQ0 1-655)
Description: Hoechst 33342 dye extrusion in HeLa cells expressing wild-type ABCG2. The format is cell-based. The note with it: wild-type ABCG2, 0.2 µM Hoechst 33342, full inhibition by 1 µM Ko143.

Data set [9] deals with T3, OATP1A2. Put plainly: cell-based.
The conditions of data set [10]: cited from earlier work.
Data set [11] addresses T1, OATP2B1. Description: cell-based.

Consider `NC(=O)c1nc(F)c[nH]c1=O` [favipiravir], for which the “Effect on OATP2B1 activity (in words)” value in [1] is “no interaction”. In addition, the “Effect on ABCB1 ATP-dependent NMQ uptake (in words)” value in data set [2] was “no inhibitory effect”. Besides, in data set [3], the IC50 at 10 min is over 50 µM. Besides, the IC50 at 1 min in data set [4] (probe 3H-N-methyl-quinidine (NMQ), 1 µM) is over 50 µM. For the same compound, the IC50 at 15 min in [5] is over 50 µM.

With `CCC(CC)COC(=O)[C@H](C)N[P@](=O)(OC[C@H]1O[C@@](C#N)(c2ccc3c(N)ncnn23)[C@H](O)[C@@H]1O)Oc1ccccc1` [remdesivir], the IC50 was over 20 µM in [6], 3.8 µM in [9] and 3.8 µM in data set [11]. Further, in data set [7], the “Concentration at which baseline ABCG2-ATPase activity was inhibited” value was in the range of 20 to 50 µmol. Moreover, the “Effect on baseline ABCG2-ATPase activity (in words)” value in [7] (ivermectin, ritonavir, lopinavir at low micromolar, remdesivir at higher concentrations) was “significantly inhibited”. For the same compound, the “Effect on Hst dye extrusion by ABCG2 in HeLa cells (in words)” value in [8] was “slight effect at relatively high concentrations”. Also, the “Plasma concentration, peak values” in data set [10] is 3000 to 5000 nM. The “Reported peak plasma concentration” value in data set [10] (reported, reference not given) is given as “about 5 μM”.

Turning to `CCN(CCO)CCCC(C)Nc1ccnc2cc(Cl)ccc12` (stereo not drawn) [hydroxychloroquine], the “Effect on OATP2B1 activity (in words)” value in data set [1] was “only modest inhibition”. Also, the “Effect on ABCB1 ATP-dependent NMQ uptake (in words)” value in [2] was “practically no effect”. For the same compound, the IC50 at 1 min in [4] (Estimated Transporter Inhibition IC50, ABCB1 vesicular assay, ATP-dependent NMQ uptake, HEK-293/ABCB1 inverted membrane vesicles, '-' = no inhibition) is over 50 µM. The half-maximal inhibitory concentration (IC50) in data set [9] turned out to be 18.9 µM; in [11] it was 84 µM.
